Measurements taken from paper PMC11869560, “Anticancer and cancer preventive activities of shogaol and curcumin from Zingiberaceae family plants in KG-1a leukemic stem cells” (BMC Complementary Medicine and Therapies, 2025).
Values after ≈ are worked out from the molar mass of the structure shown. Like-named read-outs stand apart in the source and are kept apart here.

Experiments:
[1] = test system: KG-1a cells; assay: MTT cytotoxicity assay in KG-1a cells; type: cell-based, human; conditions: for IC50 / IC20: Homo sapiens; for IC20: incubation for 48 h, read-out: IC20 KG-1a (inhibitory concentration at 20% growth); for Selectivity index (SI): IC50 for normal cells (PBMCs) / IC50 for cancer cells (KG-1a)
Experimental: (§1) MTT (3-(4,5-dimethylthiazol-2-yl)-2,5-diphenyltetrazolium bromide) assay was used to investigate the cytotoxicity of the test samples. KG-1a (1.5 × 10^4 cells/well), K562 (1.0 × 10^4 cells/well), PBMCs (1.0 × 10^5 cells/well), A549 (5.0 × 10^3 cells/well), MCF-7 (5.0 × 10^3 cells/well), and HeLa (5.0 × 10^3 cells/well) were seeded into a 96-well plate and incubated overnight at 37 °C with 5% CO2. […] After that, 5 mg/mL of MTT dye solution (Sigma-Aldrich, MA, USA) was added and incubated for 4 h. The produced formazan crystals were dissolved in 200 µL of DMSO (Sigma-Aldrich, MA, USA); then, the optical density (OD) was measured using an ELISA plate reader (Metertech, Taipei, Taiwan) at 578 nm with a reference wavelength of 630 nm. The percentage of surviving cells was calculated from the absorbance values of the test and control wells using the following Equation. 1 [drawing 1]
(§2) where ODsample is a mean absorbance in test well and ODvehicle control is a mean absorbance in VC well. The average percentage of surviving cells at each concentration obtained from triplicate experiments was plotted as a dose-response curve. Inhibitory concentration values at 50% growth (IC50 value) were defined as the lowest concentration of the test sample that inhibited cell growth by 50% compared to the untreated control.
(§3) To calculate IC50 values, a dose-response curve was fitted using non-linear regression analysis, as described in the GraphPad Prism guidelines (https://www.graphpad.com/support/faq/how-to-determine-an-icsub50sub/). The IC50 value was obtained by determining the point at which the curve intersected 50% growth inhibition. Non-linear regression graphs of the dose-response curve for each compound are provided in the supplementary data file (Figs. S1–S8).
where IC50 N is IC50 for normal cells and IC50 C is IC50 for cancer cells which were treated with the same compounds in both cells.

[2] = test system: PBMCs; assay: MTT cytotoxicity assay in PBMCs; type: cell-based, human; conditions: Homo sapiens, PBMC; for IC20: incubation for 48 h, read-out: IC20 PBMCs (inhibitory concentration at 20% growth)
Experimental: PBMCs were isolated from blood samples using the Ficoll-Hypaque technique. Initially, 10–20 mL of blood was collected in a heparin tube at a ratio of 1:500 from a minimum of three healthy volunteers. Subsequently, the blood samples were diluted with Phosphate buffer saline (PBS), pH 7.4, at a ratio of 1:1 to reduce viscosity. Histopaque-1077 (Sigma-Aldrich, MA, USA) was then underlaid the diluted sample and centrifuged at 400×g for 30 min. The resulting PBMCs were collected, washed with PBS, pH 7.4, and prepared for further experiments.
as §1, §2, §3

[3] = test system: RAW264.7 cells; assay: Cytotoxicity (IC20, cell viability) in RAW264.7 cells; type: cell-based; conditions: Mus musculus, read-out: IC20 RAW264.7 (inhibitory concentration at 20% growth)
Experimental: MTT (3-(4,5-dimethylthiazol-2-yl)-2,5-diphenyltetrazolium bromide) assay was used to investigate the cytotoxicity of the test samples. […] After that, 5 mg/mL of MTT dye solution (Sigma-Aldrich, MA, USA) was added and incubated for 4 h. The produced formazan crystals were dissolved in 200 μL of DMSO (Sigma-Aldrich, MA, USA); then, the optical density (OD) was measured using an ELISA plate reader ([…], Taiwan) at 578 nm with a reference wavelength of 630 nm. The percentage of surviving cells was calculated from the absorbance values of the test and control wells using the following Equation. 1 [drawing 1] […] Afterward, supernatants were collected, and the levels of TNF-α and NO were measured using the Mouse TNF alpha Uncoated ELISA Kit (InvitrogenTM, ThermoFisher Scientific, MA, USA) and the Total Nitric Oxide Assay Kit (InvitrogenTM, ThermoFisher Scientific, MA, USA), respectively, according to the manufacturer's instructions.

[4] = test system: KG-1a cells; assay: Trypan blue exclusion test, cell numbers of KG-1a cells; type: cell-based, human; conditions: IC20 concentrations, 48 h
Experimental: (§4) This test was used to confirm the cytotoxicity of the test samples. The cancer cells after exposure to crude ethanolic extracts and active compounds for 48 h were harvested and washed with ice-cold PBS, pH 7.4 for 3 times. Then, the cells were resuspended with PBS, pH 7.4. The cell suspensions were diluted with PBS, pH 7.4 at the appropriate dilution before being mixed with 0.2% trypan blue solution at 1:2 dilution for cell count on a hemocytometer. From this test, the viable cells and the dead cells could also be obviously detected.
as §4, with “crude ethanolic extracts and active compounds. KG-1a” for “the test samples. The cancer”

[5] = test system: WT1 protein expression in KG-1a cells; assay: WT1 protein expression in KG-1a cells by Western blotting; type: cell-based, human; conditions: IC20 concentrations, 48 h, normalized to GAPDH
Experimental: (§5) KG-1a cells (1.5 × 10^5 cells/mL) were treated with compounds or extracts at different incubation times. Then, the cells were harvested and the whole proteins were extracted using a RIPA buffer (25 mM Tris-base, pH 7.6, 0.1% SDS, 1% Triton X-100, 150 mM NaCl, and 1 mM EDTA). The protein concentration was measured using the Folin-Lowry or Bradford assay. The whole protein lysates (30 µg/lane) were then separated through 7.5% SDS-PAGE under reducing conditions and then transferred to PVDF membranes. The membranes were blocked in 5% skim milk in PBS, pH 7.4 at RT for 2 h, then, target proteins were probed with specific primary antibodies (anti-WT1, anti-CD34, anti-GAPDH, anti-cleaved caspase-3, anti-cleaved PARP, anti-phospho-Akt, anti-phospho-c-Jun, anti-phospho-SAPK/JNK, and anti-YAP/TAZ) indicated in Table S10 which diluted at a ratio of 1:1,000 in PBS, pH 7.4 at RT for 2 h. After incubation, the membranes were rinsed 6 times with 0.1% Tween-20 (Sigma-Aldrich, MA, USA) in PBS, pH 7.4 (PBS-T), each time for 5 min. The reaction was followed by HRP-conjugated secondary antibody at 1:20,000 dilution in PBS, pH 7.4 at RT for 2 h, then, the membranes were rinsed 6 times for 5 min each with PBS-T. The proteins were shown using Immobilon Forte Western HRP substrate (Millipore, MA, USA). Finally, the protein band signal was quantified by using a scan densitometer (Bio-Rad Laboratories, CA, USA).

[6] = test system: CD34 protein expression in KG-1a cells; assay: CD34 protein expression in KG-1a cells by Western blotting; type: cell-based, human; conditions: IC20 concentrations, 48 h, normalized to GAPDH
Experimental: as §5

[7] = KG-1a, 48 h, active compounds and drugs, MTT, 48 h, read-out: IC50 KG-1a
[8] = KG-1a, Table S7, KG-1a, first replicate, read-out: IC50 value R1
[9] = KG-1a, Table S7, KG-1a, second replicate, read-out: IC50 value R2
[10] = KG-1a, Table S7, KG-1a, third replicate, read-out: IC50 value R3
[11] = Table S8, PBMCs, first replicate, read-out: IC50 value R1
[12] = Table S8, PBMCs, second replicate, read-out: IC50 value R2
[13] = Table S8, PBMCs, third replicate, read-out: IC50 value R3
[14] = active compounds and drugs, MTT, 48 h, read-out: IC50 PBMCs
[15] = KG-1a, Table S7, KG-1a, mean of R1-R3, read-out: IC50 value Mean
[16] = Table S8, PBMCs, mean of R1-R3, read-out: IC50 value Mean
[17] = KG-1a, 48 h, drugs, MTT, 48 h, read-out: IC50 KG-1a
[18] = drugs, MTT, 48 h, read-out: IC50 PBMCs

SMILES	IC50 [1, 7]	IC50 [1, 8]	IC50 [1, 9]	IC50 [1, 10]	Selectivity index (SI) ([1]; 48 h)	IC50 [2, 11]	IC50 [2, 12]	IC50 [2, 13]	IC50 [2, 14]	IC20 [2]	IC50 [1, 15]	IC50 [2, 16]	IC50 [1, 17]	IC50 [2, 18]	also measured
O=C(/C=C/c1ccc(O)cc1)CC(=O)/C=C/c1ccc(O)cc1 [Bisdemethoxycurcumin, bisdemethoxycurcumin]	17.9 ± 0.99 µg/mL (≈ 58.1 µM)	17.1 µg/mL (≈ 55.6 µM)	17.6 µg/mL (≈ 57 µM)	19 µg/mL (≈ 61.7 µM)	0.65	12.6 µg/mL (≈ 40.7 µM)	12.2 µg/mL (≈ 39.4 µM)	10.2 µg/mL (≈ 33.1 µM)	11.6 ± 1.25 µg/mL (≈ 37.8 µM)	6.9 ± 1.59 µg/mL (≈ 22.4 µM)					IC20 ([1]; KG-1a, 48 h): 7.97 ± 2.07 µg/mL (≈ 25.8 µM); IC20 ([3]; RAW264.7, incubation for 48 h): 2.71 ± 0.62 µg/mL (≈ 8.79 µM); decrease of total cell number compared to VC [4]: 47.21 ± 7.98%; normalized viable cell counts [4]: 962.81 ± 19.30 × 10^3 cells per 1 million total cells
O=P1(N(CCCl)CCCl)NCCCO1 (centres unmarked) [Cyclophosphamide, cyclophosphamide, reference compound]															IC50 ([1]; KG-1a, 48 h, read-out: IC50 KG-1a): > 400 µg/mL; IC50 ([1]; KG-1a, read-out: IC50 value Mean): > 400 µg/mL; IC50 ([1]; KG-1a, read-out: IC50 value R1): > 400 µg/mL; IC50 ([1]; KG-1a, read-out: IC50 value R2): > 400 µg/mL; IC50 ([1]; KG-1a, read-out: IC50 value R3): > 400 µg/mL; IC50 ([2]; 48 h, read-out: IC50 PBMCs): > 400 µg/mL; IC50 ([2]; read-out: IC50 value Mean): > 400 µg/mL; IC50 ([2]; read-out: IC50 value R1): > 400 µg/mL; IC50 ([2]; read-out: IC50 value R2): > 400 µg/mL; IC50 ([2]; read-out: IC50 value R3): > 400 µg/mL
Nc1ccn([C@@H]2O[C@H](CO)[C@@H](O)[C@@H]2O)c(=O)n1 [Cytarabine, cytarabine, reference compound]	> 100 µg/mL	> 100 µg/mL	> 100 µg/mL	> 100 µg/mL	> 1	> 100 µg/mL	> 100 µg/mL	> 100 µg/mL	> 100 µg/mL		> 100 µg/mL	> 100 µg/mL			
COc1cc(/C=C/C(O)=C/C(=O)/C=C/c2ccc(O)cc2)ccc1O [Demethoxycurcumin, demethoxycurcumin]					1.23	14.2 µg/mL (≈ 41.8 µM)	13.6 µg/mL (≈ 40.2 µM)	13.9 µg/mL (≈ 41 µM)	13.9 ± 0.28 µg/mL (≈ 41 µM)	7.95 ± 0.26 µg/mL (≈ 23.5 µM)					IC50 ([1]; KG-1a, active compounds and drugs, MTT, 48 h, read-out: IC50 KG-1a): 11.3 ± 0.85 µg/mL (≈ 33.3 µM); IC20 ([1]; KG-1a): 3.69 ± 0.53 µg/mL (≈ 10.9 µM); IC50 ([1]; Table S7, KG-1a, first replicate, read-out: IC50 value R1): 10.3 µg/mL (≈ 30.5 µM); IC50 ([1]; Table S7, KG-1a, second replicate, read-out: IC50 value R2): 11.6 µg/mL (≈ 34.4 µM); IC50 ([1]; Table S7, KG-1a, third replicate, read-out: IC50 value R3): 11.9 µg/mL (≈ 35.1 µM); Selectivity index (SI) ([1]; 48 h, listed as demethoxycurcumin): greater than 1; IC20 ([3]; RAW264.7, 48 h): 5.94 ± 2.02 µg/mL (≈ 17.6 µM); decrease of WT1 protein level compared to VC [5]: 33.37 ± 3.87%; decrease of CD34 protein level compared to VC [6]: 32.79 ± 1.56%
COc1cccc2c1C(=O)c1c(O)c3c(c(O)c1C2=O)C[C@@](O)(C(=O)CO)C[C@@H]3O[C@H]1C[C@H](N)[C@H](O)[C@H](C)O1 [Doxorubicin, doxorubicin, reference compound]		0.807 µg/mL (≈ 1.48 µM)	0.622 µg/mL (≈ 1.14 µM)	0.528 µg/mL (≈ 0.971 µM)	> 1.53	> 1 µg/mL	> 1 µg/mL	> 1 µg/mL				> 1 µg/mL	0.652 ± 0.142 µg/mL (≈ 1.2 µM)	> 1 µg/mL	Selectivity index (SI) ([1]; 48 h, listed as doxorubicin): greater than 1
CC(=O)[C@]1(O)Cc2c(O)c3c(c(O)c2[C@@H](O[C@H]2C[C@H](N)[C@H](O)[C@H](C)O2)C1)C(=O)c1ccccc1C3=O [Idarubicin, idarubicin, reference compound]		0.0259 µg/mL (≈ 0.052 µM)	0.0318 µg/mL (≈ 0.0639 µM)	0.026 µg/mL (≈ 0.0522 µM)		> 1 µg/mL	> 1 µg/mL	> 1 µg/mL			0.0279 µg/mL (≈ 0.0561 µM)	> 1 µg/mL	0.0313 ± 0.00504 µg/mL (≈ 0.0629 µM)	> 1 µg/mL	
